Measurements: paper PMC10208570, “Peptidomimetic antibiotics disrupt the lipopolysaccharide transport bridge of drug-resistant Enterobacteriaceae” (Science Advances, 2023)
Converted amounts (≈) assume the structure as drawn. Like-named read-outs stand apart in the source and are kept apart here.

Tests used:
[1] = test system: E. coli ST131 (n=8); assay: MIC against isolate panel; format: cell-based, Escherichia coli; conditions: CLSI microdilution; minimum and maximum MIC of the panel
Method: (§1) MIC assays [Clinical and Laboratory Standards Institute (CLSI) methodology] and serial passage studies were performed as described by Luther et al. ([6]). […] Resistant mutants were isolated, and their MIC values were determined and sent to Microbes NG (Birmingham, United Kingdom) for whole-genome sequencing and bioinformatic analysis.

[2] = test system: K. pneumoniae 968733 (CST-R); assay: MIC assay (CLSI); format: cell-based, Klebsiella pneumoniae
Method: as §1

[3] = test system: Enterobacteriaceae (CS, Col-S) (n=22); format: cell-based; conditions: CLSI microdilution; minimum and maximum MIC of the panel; carbapenem sensitive, colistin sensitive
Method: as §1

[4] = test system: Klebsiella pneumoniae ATCC 43816 LptA L116Q mutant; assay: microbe, parasite or virus in culture
Method: as §1

[5] = test system: Escherichia coli ATCC 25922 LptA E84D mutant; assay: microbe, parasite or virus in culture
Method: as §1

[6] = test system: Klebsiella pneumoniae ATCC 43816 PglJ, PhnJ, ThiH mutant; assay: microbe, parasite or virus in culture
Method: as §1

[7] = test system: K. pneumoniae ATCC 43816 LptA Q62L mutant; assay: microbe, parasite or virus in culture; conditions: for MIC: Klebsiella pneumoniae
Method: as §1

[8] = test system: K. pneumoniae ATCC 43816 (parent / WT); assay: microbe, parasite or virus in culture
Method: as §1

[9] = test system: K. pneumoniae NCTC 13443 (NDM-1) LptA Q62L mutant; assay: microbe, parasite or virus in culture; conditions: for MIC: Klebsiella pneumoniae
Method: as §1

[10] = test system: E. coli ATCC 25922 LptA Q62L mutant; assay: microbe, parasite or virus in culture; conditions: for MIC: Escherichia coli
Method: as §1

[11] = test system: Klebsiella pneumoniae ATCC 43816 LptA I36S mutant; assay: microbe, parasite or virus in culture
Method: as §1

[12] = test system: Escherichia coli ATCC 25922 KdsD mutant; assay: microbe, parasite or virus in culture
Method: as §1

[13] = test system: K. pneumoniae NCTC 13443 (NDM-1) (parent / WT); assay: microbe, parasite or virus in culture; conditions: for MIC: Klebsiella pneumoniae
Method: as §1

[14] = test system: E. coli ATCC 25922 (parent / WT); assay: microbe, parasite or virus in culture; conditions: for MIC: Escherichia coli
Method: as §1

[15] = test system: Klebsiella pneumoniae NCTC 13443 LptA I36S mutant; assay: microbe, parasite or virus in culture
Method: as §1

[16] = test system: Klebsiella pneumoniae ATCC 43816 LapB mutant; assay: microbe, parasite or virus in culture
Method: as §1

[17] = test system: Klebsiella pneumoniae NCTC 13443 LpxC, LpxD mutant; assay: microbe, parasite or virus in culture
Method: as §1

[18] = test system: Klebsiella pneumoniae ATCC 43816 LptA I36N mutant; assay: microbe, parasite or virus in culture
Method: as §1

[19] = test system: Klebsiella pneumoniae NCTC 13443 YejM mutant; assay: microbe, parasite or virus in culture
Method: as §1

[20] = test system: panel of 121 Enterobacteriaceae including CRE, MDR, and XDR isolates; assay: organism not typed
Method: as §1

[21] = test system: E. coli; format: cell-based, Escherichia coli; conditions: serial passage in broth at sub-MIC and multiples of the MIC
Method: as §1
(§2) Fig. S8. Resistance development studies by serial passage. Broth containing a single antibiotic at sub-MIC and multiples of the MIC were inoculated with bacteria. Drug concentrations were […]
(§3) day 1 and 2 of passaging.
(§4) (1 picture or pasted object on this page, not shown here)

[22] = test system: K. pneumoniae; format: cell-based, Klebsiella pneumoniae; conditions: serial passage in broth at sub-MIC and multiples of the MIC
Method: as §1, §2, §3, §4

[23] = CLSI method, clone harboring LptA Q62L
[24] = CLSI microdilution method, 121 isolates

Compound: C[C@@H](O)[C@H]1C(=O)N2C(C(=O)O)=C(S[C@@H]3CN[C@H](C(=O)N(C)C)C3)[C@H](C)[C@H]12 [Meropenem]
- MIC range E. coli ST131 (n=8) [1]: <=0.06-8 µg/mL
- MIC ([2]; Klebsiella pneumoniae, read-out: MIC K. pneumoniae 968733 (CST-R) Parent): 0.031 µg/mL (≈ 0.0808 µM)
- MIC range Enterobacteriaceae (CS, Col-S) (n=22) [3]: ≤0.06 to 0.5 µg/mL
- MIC ([4]; Klebsiella pneumoniae, ATCC43816, read-out: MIC Klebsiella pneumoniae ATCC 43816 LptA L116Q (1x)): ≤ 0.06 µg/mL
- MIC ([5]; Escherichia coli, ATCC25922, read-out: MIC Escherichia coli ATCC 25922 LptA E84D (1x)): ≤ 0.06 µg/mL
- MIC ([6]; Klebsiella pneumoniae, ATCC43816, read-out: MIC Klebsiella pneumoniae ATCC 43816 PglJ, PhnJ, ThiH (1x)): 0.13 µg/mL (≈ 0.339 µM)
- MIC ([7]; ATCC43816, read-out: MIC K. pneumoniae ATCC 43816 Q62L mutant): 0.063 µg/mL (≈ 0.164 µM)
- MIC ([7]; ATCC43816, read-out: MIC Klebsiella pneumoniae ATCC 43816 LptA Q62L (4x)): ≤ 0.06 µg/mL
- MIC ([8]; Klebsiella pneumoniae, ATCC43816, read-out: MIC Klebsiella pneumoniae ATCC 43816 WT): 0.13 µg/mL (≈ 0.339 µM)
- MIC ([9]; NCTC13443, read-out: MIC K. pneumoniae NCTC 13443 (NDM-1) Q62L mutant): > 8 µg/mL
- MIC ([9]; NCTC13443, read-out: MIC Klebsiella pneumoniae NCTC 13443 LptA Q62L (5x)): > 64 µg/mL
- MIC ([10]; ATCC25922, read-out: MIC E. coli ATCC 25922 Q62L mutant): 0.063 µg/mL (≈ 0.164 µM)
- MIC ([10]; ATCC25922, read-out: MIC Escherichia coli ATCC 25922 LptA Q62L (7x)): ≤ 0.06 µg/mL
- MIC ([11]; Klebsiella pneumoniae, ATCC43816, read-out: MIC Klebsiella pneumoniae ATCC 43816 LptA I36S (1x)): ≤ 0.06 µg/mL
- MIC ([12]; Escherichia coli, ATCC25922, read-out: MIC Escherichia coli ATCC 25922 KdsD (2x)): 0.13 µg/mL (≈ 0.339 µM)
- MIC ([13]; NCTC13443, read-out: MIC K. pneumoniae NCTC 13443 (NDM-1) Parent): > 8 µg/mL
- MIC ([13]; NCTC13443, read-out: MIC Klebsiella pneumoniae NCTC 13443 WT): > 64 µg/mL
- MIC ([14]; ATCC25922, read-out: MIC E. coli ATCC 25922 Parent): 0.063 µg/mL (≈ 0.164 µM)
- MIC ([14]; ATCC25922, read-out: MIC Escherichia coli ATCC 25922 WT): ≤ 0.06 µg/mL
- MIC ([15]; Klebsiella pneumoniae, NCTC13443, read-out: MIC Klebsiella pneumoniae NCTC 13443 LptA I36S (2x)): > 64 µg/mL
- MIC ([16]; Klebsiella pneumoniae, ATCC43816, read-out: MIC Klebsiella pneumoniae ATCC 43816 LapB (1x)): 0.13 µg/mL (≈ 0.339 µM)
- MIC ([17]; Klebsiella pneumoniae, NCTC13443, read-out: MIC Klebsiella pneumoniae NCTC 13443 LpxC, LpxD (1x)): > 64 µg/mL
- MIC ([18]; Klebsiella pneumoniae, ATCC43816, read-out: MIC Klebsiella pneumoniae ATCC 43816 LptA I36N (1x)): ≤ 0.06 µg/mL
- MIC ([19]; Klebsiella pneumoniae, NCTC13443, read-out: MIC Klebsiella pneumoniae NCTC 13443 YejM (1x)): > 64 µg/mL
- MIC50 ([20]; read-out: MIC50 (n=121)): > 8 µg/mL
- MIC90 ([20]; read-out: MIC90 (n=121)): > 64 µg/mL

Compound: Colistin
- Development of resistance, day of passaging, E. coli [21]: 5 to 7 days
- MIC K. pneumoniae 968733 (CST-R) Parent ([2]; CLSI method, colistin-resistant strain): >8 micrograms per milliliter
- MIC range Enterobacteriaceae (CS, Col-S) (n=22) [3]: 0.06 to 0.5 µg/mL
- MIC Klebsiella pneumoniae ATCC 43816 LptA L116Q (1x) ([4]; Table S9 panel): 0.13 µg/mL
- MIC Escherichia coli ATCC 25922 LptA E84D (1x) ([5]; Table S9 panel): 0.25 µg/mL
- MIC Klebsiella pneumoniae ATCC 43816 PglJ, PhnJ, ThiH (1x) ([6]; Table S9 panel, other mutation): 0.13 µg/mL
- MIC K. pneumoniae ATCC 43816 Q62L mutant [7, 23]: 0.125 micrograms per milliliter
- MIC Klebsiella pneumoniae ATCC 43816 LptA Q62L (4x) ([7]; Table S9 panel): 0.13 µg/mL
- MIC K. pneumoniae ATCC 43816 Parent ([8]; CLSI method, parent strain): 0.125 micrograms per milliliter
- MIC Klebsiella pneumoniae ATCC 43816 WT ([8]; Table S9 panel, WT): 0.13 µg/mL
- MIC K. pneumoniae NCTC 13443 (NDM-1) Q62L mutant [9, 23]: 0.125 micrograms per milliliter
- MIC Klebsiella pneumoniae NCTC 13443 LptA Q62L (5x) ([9]; Table S9 panel): 0.13 µg/mL
- MIC E. coli ATCC 25922 Q62L mutant [10, 23]: 0.25 micrograms per milliliter
- MIC Escherichia coli ATCC 25922 LptA Q62L (7x) ([10]; Table S9 panel): 0.13 µg/mL
- MIC Klebsiella pneumoniae ATCC 43816 LptA I36S (1x) ([11]; Table S9 panel): 0.13 µg/mL
- MIC Escherichia coli ATCC 25922 KdsD (2x) ([12]; Table S9 panel, other mutation): 0.25 µg/mL
- MIC Klebsiella pneumoniae NCTC 13443 WT ([13]; Table S9 panel, WT): 0.25 µg/mL
- MIC Escherichia coli ATCC 25922 WT ([14]; Table S9 panel, WT): 0.25 µg/mL
- MIC Klebsiella pneumoniae NCTC 13443 LptA I36S (2x) ([15]; Table S9 panel): 0.13 µg/mL
- MIC Klebsiella pneumoniae ATCC 43816 LapB (1x) ([16]; Table S9 panel, other mutation): 0.13 µg/mL
- MIC Klebsiella pneumoniae NCTC 13443 LpxC, LpxD (1x) ([17]; Table S9 panel, other mutation): 0.25 µg/mL
- MIC Klebsiella pneumoniae ATCC 43816 LptA I36N (1x) ([18]; Table S9 panel): ≤ 0.06 µg/mL
- MIC Klebsiella pneumoniae NCTC 13443 YejM (1x) ([19]; Table S9 panel, other mutation): 0.25 µg/mL
- MIC50 (n=121) [20, 24]: 0.13 µg/mL
- MIC90 (n=121) [20, 24]: > 8 µg/mL
- Development of resistance, day of passaging, K. pneumoniae [22]: 1 to 3 days
